Measured values taken from publication PMC4503722, “Novel Phenotypic Outcomes Identified for a Public Collection of Approved Drugs from a Publicly Accessible Panel of Assays” (PLoS ONE, 2015).
Like-named read-outs stand apart in the source and are kept apart here. Where a SMILES comes first, the peptide text is derived from it. Bridges are numbered along the chain shown (N, C = ends). [ ]: non-standard residue; d: D form. hArg = N=C(N)NCCCC[C@H](N)C(=O)O; Mpa = O=C(O)CCS

Key:
[1] = test system: endothelial tube formation in co-cultures of ECFCs and ADSCs treated with VEGF; test: cells; type: cell-based, human; details: for IC50: read-out: VEGF_ADSC\ECFC Angio CD31 TubeArea summarized IC50
[2] = test system: ECFC/ADSC co-culture cell nuclei number; details: for IC50: read-out: VEGF_ADSC\ECFC Angio Hoechst NucArea summarized IC50
[3] = test system: HeLa cells; test: cells; type: cell-based;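 on Hela CellCycMod PI 4N summarized IC50: value tracks stimulation of 4N DNA content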

Structure (SMILES): CC[C@@H]1C(=O)OC[C@@H]1Cc1cncn1C [NCGC00023339-16]
- VEGF_ADSC\ECFC Angio CD31 TubeArea IC50/EC50 [1]: > 10 µM
- VEGF_ADSC\ECFC Angio Hoechst NucArea IC50/EC50 [2]: > 10 µM

Structure (SMILES): C/C=C(/C(=C/C)c1ccc(OC(C)=O)cc1)c1ccc(OC(C)=O)cc1 [NCGC00253696-01]
- IC50 [1]: > 10 µM
- IC50 [2]: > 10 µM

Structure (SMILES): C#C[C@]1(OC(C)=O)CC[C@H]2[C@@H]3CCC4=CC(=NO)CC[C@@H]4[C@H]3CC[C@@]21CC (mixture of isomers) [NCGC00344561-01]
- VEGF_ADSC\ECFC Angio CD31 TubeArea IC50/EC50 [1]: > 10 µM
- VEGF_ADSC\ECFC Angio Hoechst NucArea IC50/EC50 [2]: > 10 µM

Structure (SMILES): NC(=O)[C@@H]1CSSCCC(=O)N[C@@H](CCCCN=C(N)N)C(=O)NCC(=O)N[C@@H](CC(=O)O)C(=O)N[C@@H](Cc2c[nH]c3ccccc23)C(=O)N2CCC[C@H]2C(=O)N1 [NCGC00263524-01] ([Mpa][hArg]GDWPC-NH2; disulfide 1-7)
- VEGF_ADSC\ECFC Angio CD31 TubeArea IC50/EC50 [1]: > 10 µM
- VEGF_ADSC\ECFC Angio Hoechst NucArea IC50/EC50 [2]: > 10 µM

Structure (SMILES): Cc1c(C(=O)NN2CCCCC2)nn(-c2ccc(Cl)cc2Cl)c1-c1ccc(Cl)cc1 [NCGC00164572-02]
- IC50/EC50, VEGF_ADSC\ECFC Angio CD31 TubeArea (assay number 2) [1]: > 10 µM
- IC50/EC50, VEGF_ADSC\ECFC Angio Hoechst NucArea (assay number 3) [2]: > 10 µM

Structure (SMILES): Oc1ccc2[nH]cc(CCCCN3CC=C(c4ccccc4)CC3)c2c1 [NCGC00025216-03]
- VEGF_ADSC\ECFC Angio CD31 TubeArea IC50/EC50 [1]: 4.0367 µM
- VEGF_ADSC\ECFC Angio Hoechst NucArea IC50/EC50 [2]: > 10 µM

Structure (SMILES): CS(=O)(=O)CCNCc1ccc(-c2ccc3ncnc(Nc4ccc(OCc5cccc(F)c5)c(Cl)c4)c3c2)o1 [NCGC00167507-04]
- VEGF_ADSC\ECFC Angio CD31 TubeArea IC50/EC50 [1]: > 10 µM
- VEGF_ADSC\ECFC Angio Hoechst NucArea IC50/EC50 [2]: > 10 µM

Structure (SMILES): C#C[C@]1(O)CC[C@H]2[C@@H]3CCC4=CCCC[C@@H]4[C@H]3C(=C)C[C@@]21CC [NCGC00167449-02]
- VEGF_ADSC\ECFC Angio CD31 TubeArea IC50/EC50 [1]: > 10 µM
- VEGF_ADSC\ECFC Angio Hoechst NucArea IC50/EC50 [2]: 9.571 µM

Structure (SMILES): CC(C)c1c(C(=O)Nc2ccccc2)c(-c2ccccc2)c(-c2ccc(F)cc2)n1CC[C@@H](O)C[C@@H](O)CC(=O)O [Atorvastatin, reference compound]
- inhibition of endothelial tube / cord formation (in words) [1]: did not inhibit endothelial tube formation

Structure (SMILES): CC[N+](CC)(CC)CCOc1ccc(/C=C/c2ccccc2)cc1 [NCGC00025122-02]
- IC50 [1]: > 10 µM
- IC50 [2]: > 10 µM

Structure (SMILES): CCOC(=O)NC(C)(C)Cc1ccc(Cl)cc1 [NCGC00183835-01]
- IC50 [1]: > 10 µM
- IC50 [2]: > 10 µM

Structure (SMILES): COc1cccc2c1C(=O)c1c(O)c3c(c(O)c1C2=O)C[C@@](O)(C(=O)CO)C[C@@H]3O[C@H]1C[C@H](N)[C@H](O)[C@H](C)O1.Cl [NCGC00263918-03]
- VEGF_ADSC\ECFC Angio CD31 TubeArea IC50/EC50 [1]: 0.0429 µM
- VEGF_ADSC\ECFC Angio Hoechst NucArea IC50/EC50 [2]: 0.114 µM

Structure (SMILES): C[C@H]1O[C@@H](O[C@H]2[C@@H](O)C[C@H](O[C@H]3[C@@H](O)C[C@H](O[C@H]4CC[C@@]5(C)[C@H](CC[C@@H]6[C@@H]5CC[C@]5(C)[C@@H](C7=CC(=O)OC7)CC[C@]65O)C4)O[C@@H]3C)O[C@@H]2C)C[C@H](O)[C@@H]1O [NCGC00142623-04]
- IC50 [1]: 0.011 µM
- IC50 [2]: 0.103 µM

Structure (SMILES): COC(=O)C1=C(C)NC(C)=C(C(=O)OCCN2CCN(C(c3ccccc3)c3ccccc3)CC2)C1c1cccc([N+](=O)[O-])c1 (stereo not drawn) [NCGC00167493-04]
- IC50/EC50, VEGF_ADSC\ECFC Angio CD31 TubeArea (assay number 2) [1]: > 10 µM
- IC50/EC50, VEGF_ADSC\ECFC Angio Hoechst NucArea (assay number 3) [2]: > 10 µM

Structure (SMILES): O=C1CC(c2ccc(Cl)cc2)CC(=O)N1 [NCGC00262922-01]
- IC50/EC50, VEGF_ADSC\ECFC Angio CD31 TubeArea (assay number 2) [1]: > 10 µM
- IC50/EC50, VEGF_ADSC\ECFC Angio Hoechst NucArea (assay number 3) [2]: > 10 µM

Structure (SMILES): CC(=O)Oc1ccc(C2(c3ccc(OC(C)=O)cc3)C(=O)Nc3ccccc32)cc1 [NCGC00159420-04]
- IC50/EC50, VEGF_ADSC\ECFC Angio CD31 TubeArea (assay number 2) [1]: > 10 µM
- IC50/EC50, VEGF_ADSC\ECFC Angio Hoechst NucArea (assay number 3) [2]: > 10 µM

Structure (SMILES): CN(C)C(=O)Oc1cccc([N+](C)(C)C)c1.[Br-] [NCGC00015730-11]
- VEGF_ADSC\ECFC Angio CD31 TubeArea IC50/EC50 [1]: > 10 µM
- VEGF_ADSC\ECFC Angio Hoechst NucArea IC50/EC50 [2]: > 10 µM

Structure (SMILES): O=C(O)c1ccc2[nH]cc(CCCCN3CC=C(c4ccccc4)CC3)c2c1 [NCGC00092328-02]
- VEGF_ADSC\ECFC Angio CD31 TubeArea IC50/EC50 [1]: > 10 µM
- VEGF_ADSC\ECFC Angio Hoechst NucArea IC50/EC50 [2]: > 10 µM

Structure (SMILES): CS(=O)(=O)O.Cc1c(O)cccc1C(=O)N[C@@H](CSc1ccccc1)[C@H](O)CN1C[C@H]2CCCC[C@H]2C[C@H]1C(=O)NC(C)(C)C [NCGC00090782-06]
- VEGF_ADSC\ECFC Angio CD31 TubeArea IC50/EC50 [1]: > 10 µM
- VEGF_ADSC\ECFC Angio Hoechst NucArea IC50/EC50 [2]: > 10 µM

Structure (SMILES): COc1cc(/C=C2\CCC/C(=C\c3ccc(O)c(OC)c3)C2=O)ccc1O [NCGC00164486-04]
- IC50 [1]: > 10 µM
- IC50 [2]: 6.98 µM

Structure (SMILES): CCN[C@@H](C)Cc1cccc(C(F)(F)F)c1 [NCGC00247710-02]
- VEGF_ADSC\ECFC Angio CD31 TubeArea IC50/EC50 [1]: > 10 µM
- VEGF_ADSC\ECFC Angio Hoechst NucArea IC50/EC50 [2]: > 10 µM

Structure (SMILES): O=C(CCN1CCC(c2ccccc2)C1)c1ccc2c(c1)OCCO2 (stereo not drawn) [NCGC00160665-02]
- VEGF_ADSC\ECFC Angio CD31 TubeArea IC50/EC50 [1]: > 10 µM
- VEGF_ADSC\ECFC Angio Hoechst NucArea IC50/EC50 [2]: > 10 µM

Structure (SMILES): Cc1c(C)c2c(c(C)c1OC(=O)CCC(=O)O)CC[C@@](C)(CCC[C@H](C)CCC[C@H](C)CCCC(C)C)O2 [NCGC00167561-03]
- IC50 [1]: > 10 µM
- IC50 [2]: > 10 µM

Structure (SMILES): COc1ccccc1OCCNCC(O)COc1cccc2[nH]c3ccccc3c12 (stereo not drawn) [NCGC00167832-06]
- VEGF_ADSC\ECFC Angio CD31 TubeArea IC50/EC50 [1]: > 10 µM
- VEGF_ADSC\ECFC Angio Hoechst NucArea IC50/EC50 [2]: > 10 µM

Structure (SMILES): OCCN1CCN(CCCN2c3ccccc3Sc3ccc(Cl)cc32)CC1 [NCGC00015826-13]
- IC50 [1]: > 10 µM
- IC50 [2]: > 10 µM

Structure (SMILES): O=C1CC[C@H](C(=O)N2CCCCC2)N1 [NCGC00182992-01]
- VEGF_ADSC\ECFC Angio CD31 TubeArea IC50/EC50 [1]: > 10 µM
- VEGF_ADSC\ECFC Angio Hoechst NucArea IC50/EC50 [2]: > 10 µM

Structure (SMILES): Oc1ccc(/C=C/c2cc(O)cc(O)c2)cc1 [NCGC00017352-24]
- IC50/EC50, VEGF_ADSC\ECFC Angio CD31 TubeArea (assay number 2) [1]: > 10 µM
- IC50/EC50, VEGF_ADSC\ECFC Angio Hoechst NucArea (assay number 3) [2]: > 10 µM

Structure (SMILES): COc1ccccc1N1CCN(CC(O)COc2cc(OC)c(OC)c(OC)c2)CC1 (stereo not drawn) [NCGC00253761-01]
- VEGF_ADSC\ECFC Angio CD31 TubeArea IC50/EC50 [1]: > 10 µM
- VEGF_ADSC\ECFC Angio Hoechst NucArea IC50/EC50 [2]: > 10 µM

Structure (SMILES): CCCCCCCCOc1ccccc1C(=O)Nc1ccc(C(=O)OCC[N+](C)(CC)CC)cc1.[Br-] [NCGC00163507-03]
- VEGF_ADSC\ECFC Angio CD31 TubeArea IC50/EC50 [1]: > 10 µM
- VEGF_ADSC\ECFC Angio Hoechst NucArea IC50/EC50 [2]: 8.466 µM

Structure (SMILES): O=C1OC(OC(=O)c2cccnc2Nc2cccc(C(F)(F)F)c2)c2ccccc21 (stereo not drawn) [NCGC00167754-02]
- VEGF_ADSC\ECFC Angio CD31 TubeArea IC50/EC50 [1]: > 10 µM
- VEGF_ADSC\ECFC Angio Hoechst NucArea IC50/EC50 [2]: > 10 µM

Structure (SMILES): CCCCCCCCCCCCCCCCCCCCCC(=O)Nc1ccn([C@@H]2O[C@H](CO)[C@@H](O)[C@@H]2O)c(=O)n1 [NCGC00167515-02]
- VEGF_ADSC\ECFC Angio CD31 TubeArea IC50/EC50 [1]: > 10 µM
- VEGF_ADSC\ECFC Angio Hoechst NucArea IC50/EC50 [2]: > 10 µM

Structure (SMILES): CC[C@H](C)C(=O)O[C@H]1C[C@H](O)C=C2C=C[C@H](C)[C@H](CC[C@@H](O)C[C@@H](O)CC(=O)O)[C@H]21 [pravastatin, reference compound]
- inhibition of endothelial tube / cord formation (in words) ([1]; ECFC/ADSC co-culture): did not inhibit endothelial tube formation

Structure (SMILES): CN1CCC[C@@H]1CCO[C@](C)(c1ccccc1)c1ccc(Cl)cc1.O=C(O)/C=C/C(=O)O [NCGC00016710-05]
- VEGF_ADSC\ECFC Angio CD31 TubeArea IC50/EC50 [1]: > 10 µM
- VEGF_ADSC\ECFC Angio Hoechst NucArea IC50/EC50 [2]: > 10 µM

Structure (SMILES): CN(C)C(=S)SSC(=S)N(C)C [NCGC00091563-12]
- IC50 [2]: > 10 µM

Structure (SMILES): CC(C)(C)CC(C)(C)c1ccc(OCCOCC[N+](C)(C)Cc2ccccc2)cc1 [NCGC00016373-08]
- IC50 [1]: 3.74 µM

Structure (SMILES): CCOc1ccc2nc3cc(N)ccc3c(N)c2c1 [NCGC00096056-02]
- IC50 ([3]; assay number 14, 2N, read-out: Hela CellCycMod PI 2N summarized IC50): > 10 µM
- IC50 ([3]; assay number 15, S phase, read-out: Hela CellCycMod PI S Phase summarized IC50): > 10 µM
- IC50 ([3]; assay number 16, 4N, read-out: Hela CellCycMod PI 4N summarized IC50): > 10 µM
- IC50 ([3]; assay number 17, MI, read-out: Hela CellCycMod PI MI summarized IC50): > 10 µM
- IC50 ([3]; assay number 18, cell number, read-out: Hela CellCycMod PI Cell Number summarized IC50): 2.11 µM
- IC50 [2]: > 10 µM
